Measurements reported in US20220401360A1, “Milrinone Composition and Method for Administering Same” (Vanderbilt University, priority 2015, published 2022).
“And” between values parts separate entries of the source, which are not always exact repeats. Equal entries are not always repeated. Where two headings read alike, the source gives them in different places.

How the values were obtained:
[1] = tested on: post-operative CF-LVAD patients; test: Tolerability / safety primary end point of inhaled milrinone (arrhythmias, hypotension, hypersensitivity, death); type: in vivo; conditions: for Death while receiving inhaled milrinone therapy: 10 patients
Experimental: (§1) Methods. The present inventors evaluated fixed dose nebulized iMil delivered into a ventilator circuit for 24 hours in 10 post-operative CF-LVAD (HeartMate-II=10) patients. Tolerability (arrhythmias, hypotension and hypersensitivity reaction), efficacy (hemodynamic), pharmacokinetics (plasma milrinone levels) and cost data were collected.
The primary end point was safety, which included documentation of 1) new atrial arrhythmias, lasting greater than 30 seconds or resulting in hemodynamic instability (mean arterial pressure (MAP)<60 mmHg or requiring medical intervention) 2) sustained ventricular tachycardia (VT) lasting greater than 30 seconds, not related to an LVAD suction event or any ventricular arrhythmia resulting in hemodynamic instability (sustained hypotension with a MAP <60 mmHg not related to secondary causes such as acute blood loss or tamponade) and 3) hypersensitivity reaction to milrinone leading to systemic hypotension (MAP<60 mmHg or requiring medical intervention), bronchospasm or rash 4) Death by 30 days.

[2] = Characterization of inhaled milrinone: nebulization degradation profile (mass spectrometry); type: physicochemical; conditions: vibrating mesh nebulizer connected to a mechanical ventilator circuit
Experimental: Inhaled milrinone validation studies were performed in order to characterize inhaled milrinone aerosol particle size, evaluate nebulization degradation profile, and quantify drug delivery using a vibrating mesh nebulizer connected to a mechanical ventilator circuit. […] A pharmaceutical grade impactor was used to determine median aerodynamic particle size and HPLC was used to determine the amount of milrinone collected at the distal end of the experimental endotracheal tube [15]. Based on this analysis, we prepared a solution of milrinone diluted in 0.9% saline to a final concentration of 0.5 mg/ml to be delivered via continuous infusion by an Alaris® infusion pump set at a fixed rate of 12 ml/hr connected to an Areogen Solo (Aeroneb,® Galway, Ireland) vibrating mesh nebulizer and Aeroneb Pro-X nebulizer control unit (Aerogen, Galway, Ireland). The nebulizer was connected to a mechanical ventilator (Servo-I, Maquet Inc. Wayne N.J.) with a dual heated wire ventilator circuit (Teleflex Hudson RCI, Research Triangle Park, N.C.) proximal to the heated humidifier (Teleflex Hudson Neptune, Research Triangle Park, N.C.). Despite continuous nebulization, delivery of the aerosolized drug product occurred in an ‘intermittent-continuous’ fashion based on the mechanical ventilator respiratory rate. All inhaled milrinone product was administered by a licensed respiratory therapist.

[3] = tested on: post-operative CF-LVAD patients; test: Perioperative hemodynamics (right heart catheterization / indwelling pulmonary artery catheter) with inhaled milrinone; type: in vivo, human
Experimental: as §1
(§2) Secondary end points were designed to assess the efficacy, cost effectiveness and pharmacokinetic profile of inhaled milrinone therapy. Efficacy endpoints included hospital and intensive care unit (ICU) length of stay, days on inotropes, mortality at 30 days and changes in right ventricular stroke work index (RSVWi) and right heart catheterization and echocardiographic parameters from baseline values. Right heart catheterization was performed during the hospitalization before LVAD implantation and included the following parameters: right atrial pressure (RAP), mean pulmonary artery pressure (mPAP), pulmonary artery systolic pressure (PASP), cardiac index (CI) and cardiac output (CO). Echocardiographic data was collected retrospectively from echocardiograms closest to LVAD implantation date (studies performed >1 month before surgery were not included) and prospectively obtained within 72 hours after LVAD implantation. Echocardiographic parameters included: left ventricular end diastolic volume (LVEDV), left ventricular end diastolic dimension (LVEDd), cardiac output (CO), PASP, qualitative RV function, and tricuspid annular plane systolic excursion (TAPSE).
Delivery of inhaled milrinone was initiated five minutes before the first weaning attempt from cardiopulmonary bypass after LVAD implantation in the operating suite. Intraoperative transesophageal echocardiography was performed and analyzed by a single cardiac anesthesiologist, certified in the interpretation of intraoperative echocardiography. Prior to initiation of inhaled milrinone, blood samples were obtained and analyzed for baseline plasma levels of milrinone. Patient arrival in the ICU immediately after LVAD implantation was defined as ‘time zero.’ Further blood samples to determine plasma milrinone levels were obtained at 1, 4, 8, 12 and 24 hours after arrival to the ICU. Hemodynamic values from indwelling pulmonary artery catheter and routine vital signs were also obtained at 1, 4, 8, 12 and 24 hour intervals. Patients received inhaled milrinone for a maximum of 24 hours or until the patient was extubated (if less than 24 hours). Final hemodynamic values were obtained 1 hour after extubation or cessation of inhaled milrinone therapy. All patients underwent a transthoracic echocardiogram 48-72 hours after cessation of inhaled milrinone.

[4] = tested on: post-operative CF-LVAD patients; test: Echocardiographic parameters before vs after LVAD implantation with inhaled milrinone; type: in vivo, human
Experimental: Secondary end points were designed to assess the efficacy, cost effectiveness and pharmacokinetic profile of inhaled milrinone therapy. […] Right heart catheterization was performed during the hospitalization before LVAD implantation and included the following parameters: right atrial pressure (RAP), mean pulmonary artery pressure (mPAP), pulmonary artery systolic pressure (PASP), cardiac index (CI) and cardiac output (CO). […] Echocardiographic parameters included: left ventricular end diastolic volume (LVEDV), left ventricular end diastolic dimension (LVEDd), cardiac output (CO), PASP, qualitative RV function, and tricuspid annular plane systolic excursion (TAPSE). Delivery of inhaled milrinone was initiated five minutes before the first weaning attempt from cardiopulmonary bypass after LVAD implantation in the operating suite. Intraoperative transesophageal echocardiography was performed and analyzed by a single cardiac anesthesiologist, certified in the interpretation of intraoperative echocardiography. Prior to initiation of inhaled milrinone, blood samples were obtained and analyzed for baseline plasma levels of milrinone. […] All patients underwent a transthoracic echocardiogram 48-72 hours after cessation of inhaled milrinone.

[5] = literature refs [17, 18]; cited from earlier work
[6] = Plasma milrinone levels (HPLC) during inhaled milrinone after CF-LVAD implantation; type: in vivo, human; conditions: for concentration at 0 h / concentration at 1 h / concentration at 4 h / concentration at 8 h / concentration at 12 h / concentration at 24 h: human, plasma, inhaled, 6 mg/h
Experimental: Blood samples to determine plasma milrinone levels were obtained at baseline, 1, 4, 8, 12 and 24 hours after initiation of inhaled milrinone. Plasma milrinone levels were determined by ultra-violet high liquid chromatography (HPLC) method [14].
Delivery of inhaled milrinone was initiated five minutes before the first weaning attempt from cardiopulmonary bypass after LVAD implantation in the operating suite. […] Prior to initiation of inhaled milrinone, blood samples were obtained and analyzed for baseline plasma levels of milrinone. Patient arrival in the ICU immediately after LVAD implantation was defined as ‘time zero.’ Further blood samples to determine plasma milrinone levels were obtained at 1, 4, 8, 12 and 24 hours after arrival to the ICU. […] Patients received inhaled milrinone for a maximum of 24 hours or until the patient was extubated (if less than 24 hours).

[7] = tested on: post-operative CF-LVAD patients; test: Hospital and ICU length of stay, days on inotropes; type: in vivo, human; conditions: inhaled milrinone group
Experimental: as §2

[8] = while on inhaled milrinone therapy, p<0.009

## Cc1[nH]c(=O)c(C#N)cc1-c1ccncc1 [inhaled milrinone, milrinone]
[1]
  Death while receiving inhaled milrinone therapy: No deaths occurred
[1]; listed as iMil
  Death while receiving inhaled milrinone therapy: not observed
[1]; human, in vivo
  Ventricular tachycardia events, number (%): 3 (30%)
[1]; human, in vivo, 24 h
  Non-sustained VT, number of patients/events: 1
  Sustained VT, number of patients/events: 2
[1]; institutional 30 day death rate 12% (12/102), p=0.60
  Deaths in the study group 30 days after CF-LVAD implantation: 0/10
[1]; n=3 of 10, INTERMACS data base 36%, p=0.99
  Rate of ventricular arrhythmias during inhaled milrinone therapy: 30%
[1]; within hours of LVAD implantation, no absolute cause identified
  Patients requiring veno-arterial ECMO support: 1
[2]
  New drug formation or degradation products after nebulization (mass spectrometry): did not identify new drug formation or degradation products
[3]; 1 hour after cessation of inhaled milrinone, Pre-VAD RHC 13.75
  Right Atrial Pressure, mean, Post milrinone: 25.75 mmHg
[3]; 1 hour after cessation, Pre-VAD RHC 39.5
  Mean Pulmonary Artery Pressure, mean, Post milrinone: 27 mmHg
[3]; 1 hour after cessation, Pre-VAD RHC 56.33
  Pulmonary Artery Systolic Pressure, mean, Post milrinone: 38.75 mmHg
[3]; ICU arrival after LVAD implantation, inhaled milrinone started before weaning from bypass, Pre-VAD RHC 13.75
  Right Atrial Pressure, mean, ICU arrival: 13.33 mmHg
[3]; ICU arrival, Pre-VAD RHC 39.5
  Mean Pulmonary Artery Pressure, mean, ICU arrival: 28.5 mmHg
[3]; ICU arrival, Pre-VAD RHC 56.33
  Pulmonary Artery Systolic Pressure, mean, ICU arrival: 36.00 mmHg
[3]; during inhaled milrinone, Pre-VAD RHC 13.75
  Right Atrial Pressure, Mean on milrinone: 13.53 mmHg
[3]; during inhaled milrinone, Pre-VAD RHC 39.5
  Mean Pulmonary Artery Pressure, Mean on milrinone: 25.88 mmHg
[3]; during inhaled milrinone, Pre-VAD RHC 56.33
  Pulmonary Artery Systolic Pressure, Mean on milrinone: 36.25 mmHg
[3]; p=0.017
  Invasive mean pulmonary artery pressure from baseline to during iMil therapy: improved
[3]; preoperative mean 571, p=0.179
  RVSWi, mean, 1 hour after milrinone cessation: 383 mmHg-mL/m^2
[3]; preoperative median 453, p=0.179
  RVSWi, median, 1 hour after milrinone cessation: 326 mmHg-mL/m^2
[4]; p=0.347
  Qualitative RV function after LVAD implantation vs pre-LVAD implant: not significantly different
[4]; p=0.846
  TAPSE after LVAD implantation vs pre-LVAD implant: not significantly different
[4]; [8]
  LVED volume (echocardiography) after LVAD implantation vs pre-LVAD implant: significant decreases
  LVIDd (echocardiography) after LVAD implantation vs pre-LVAD implant: significant decreases
  PASP (echocardiography) after LVAD implantation vs pre-LVAD implant: significant decreases
[5]
  Accepted therapeutic range of plasma milrinone: 100 to 300 ng/mL
[6]; baseline, fixed dose nebulized iMil, 10 post-operative CF-LVAD patients
  Mean plasma milrinone levels at baseline: 74.2 ± 35.4 ng/mL
[6]; Table 3 mean of patients, 0 hrs, read-out: Plasma milrinone level, Mean, 0 hrs
  concentration at 0 h: 114 ng/mL
[6]; Table 3 mean of patients, 1 hrs, read-out: Plasma milrinone level, Mean, 1 hrs
  concentration at 1 h: 133 ng/mL
[6]; Table 3 mean of patients, 4 hrs, read-out: Plasma milrinone level, Mean, 4 hrs
  concentration at 4 h: 149 ng/mL
[6]; Table 3 mean of patients, 8 hrs, read-out: Plasma milrinone level, Mean, 8 hrs
  concentration at 8 h: 213 ng/mL
[6]; Table 3 mean of patients, 12 hrs, read-out: Plasma milrinone level, Mean, 12 hrs
  concentration at 12 h: 176 ng/mL
[6]; Table 3 mean of patients, 24 hrs, read-out: Plasma milrinone level, Mean, 24 hrs
  concentration at 24 h: 173 ng/mL
[6]; Table 3 median of patients, 0 hrs, read-out: Plasma milrinone level, Median, 0 hrs
  concentration at 0 h: 75 ng/mL
[6]; Table 3 median of patients, 1 hrs, read-out: Plasma milrinone level, Median, 1 hrs
  concentration at 1 h: 114 ng/mL
[6]; Table 3 median of patients, 4 hrs, read-out: Plasma milrinone level, Median, 4 hrs
  concentration at 4 h: 117 ng/mL
[6]; Table 3 median of patients, 8 hrs, read-out: Plasma milrinone level, Median, 8 hrs
  concentration at 8 h: 227 ng/mL
[6]; Table 3 median of patients, 12 hrs, read-out: Plasma milrinone level, Median, 12 hrs
  concentration at 12 h: 160 ng/mL
[6]; Table 3 median of patients, 24 hrs, read-out: Plasma milrinone level, Median, 24 hrs
  concentration at 24 h: 137 ng/mL
[6]; 1 hour, read-out: Mean plasma milrinone levels at 1 hour
  concentration at 1 h: 111 ± 70.9 ng/mL
[6]; 4 hour, read-out: Mean plasma milrinone levels at 4 hour
  concentration at 4 h: 136 ± 41.5 ng/mL
[6]; 8 hour, read-out: Mean plasma milrinone levels at 8 hour
  concentration at 8 h: 205 ± 86.7 ng/mL
[6]; 12 hour, read-out: Mean plasma milrinone levels at 12 hour
  concentration at 12 h: 177 ± 61.3 ng/mL
[6]; 24 hour, read-out: Mean plasma milrinone levels at 24 hour
  concentration at 24 h: 188 ± 106 ng/mL
[6]; individual patients 1-10, 0 hrs, inhaled milrinone 0.5 mg/ml at 12 ml/hr, prior IV milrinone stopped 6 h (Patient 1) or >12 h before surgery
  Plasma milrinone level, 0 hrs: 69.93 ng/mL and 65.54 ng/mL and 87.08 ng/mL and 138.22 ng/mL and 392.92 ng/mL and 20.85 ng/mL and 80.03 ng/mL and 57.67 ng/mL
[6]; individual patients 1-10, 1 hrs, continuous inhaled milrinone 0.5 mg/ml at 12 ml/hr
  Plasma milrinone level, 1 hrs: 239.86 ng/mL and 115.38 ng/mL and 106.94 ng/mL and 111.96 ng/mL and 12.54 ng/mL and 157.04 ng/mL and 326.72 ng/mL and 81.31 ng/mL and 18.53 ng/mL and 158.4 ng/mL
[6]; individual patients 1-10, 4 hrs, continuous inhaled milrinone
  Plasma milrinone level, 4 hrs: 113.74 ng/mL and 112.71 ng/mL and 114.96 ng/mL and 92.16 ng/mL and 112.06 ng/mL and 188.04 ng/mL and 267.11 ng/mL and 154.31 ng/mL and 118.34 ng/mL and 216.26 ng/mL
[6]; individual patients 1-10, 8 hrs, continuous inhaled milrinone
  Plasma milrinone level, 8 hrs: 268.28 ng/mL and 115.66 ng/mL and 134 ng/mL and 273.14 ng/mL and 91.67 ng/mL and 349.39 ng/mL and 284.52 ng/mL and 158.8 ng/mL and 197.89 ng/mL and 255.72 ng/mL
[6]; individual patients 1-10, 12 hrs, continuous inhaled milrinone
  Plasma milrinone level, 12 hrs: 133.77 ng/mL and 152.27 ng/mL and 248.58 ng/mL and 254.31 ng/mL and 89.91 ng/mL and 167.3 ng/mL and 153.12 ng/mL and 205.26 ng/mL
[6]; individual patients 1-10, 24 hrs, continuous inhaled milrinone
  Plasma milrinone level, 24 hrs: 117.04 ng/mL and 364.15 ng/mL and 101.94 ng/mL and 100.88 ng/mL and 156.98 ng/mL and 197.73 ng/mL
[6]; inhaled milrinone therapy, statement in words
  Plasma milrinone levels during inhaled milrinone therapy (within the accepted therapeutic milrinone range): 100 to 300 ng/mL
[7]; institutional 5 days, p=0.49
  Median ICU length of stay: 5 days
[7]; institutional 6 days, p=0.08
  Median total days on inotrope support: 9 days
[7]; institutional 28 days, p=0.26
  Median total hospital length of stay: 33 days
